Assay [1] has as its system macrophage-derived foam cells of rat abdominal cavity. Nature of the assay: Assay of amount of TC and CE in ox-LDL induced macrophage-derived foam cells. The class given is cell-based. Particulars: 25 μM, 48 hours, rat foam cells, x ± s, n = 5. As to the method:
1. Experiment animal: SD rats, male, 200-250 g, bought from the third Military Medical University Experiment Animal Center.
2. Reagents: RPMI 1640 culture medium free of phenol red bought from Invitrogen company; LDL (115 mg/mL) bought from Peking Union Medical College; total cholesterol kit and free cholesterol kit bought from Shanghai Mind Bioengineering Limited Company; ginsenoside compound K (hereinafter being called C-K for short. White powders, purity 99%), provided by Kunming Nuowei Jinshen Bioengineering limited company supply (batch number: NTGA070521, details see China invention patent 200710066011. X “a method of preparing rare ginsenoside compound K by streptomycete fermentation of Sanchi saponins”).
LDL was placed into PBS comprising 10 μM Cu^2+, dialysed at 37° C. for 12 h, then was placed into PBS comprising 0.01% EDTA, and dialysed at 4° C. for 24 hours before stopping oxidization, then was subjected to filtration sterilization, and stored for use.
4. Culture of macrophage and establishment of foam cells model (available literature: Jia Yi, Li Xiaohui, Xing Mao, Hei Xuefeng, Liu Ya, He Cuiyao. Studies on affect of various combinations of 3 sorts of monomers in total panax notoginsenosides on formation of mouse macrophage-derived foam cells. Journal of China Pharmacy, 2008, 19 (2), 881-883.)
each rat were intraperitoneally injected with 2 mL RPMI 1640 culture solution free of serum and phenol red, and it was sacrificed by cervical dislocation after 20 minutes, and was soaked in 75% ethanol for 10 minutes, then rat's belly was cut open, and fluids in abdominal cavity were collected, and centrifugated at 750 r/min for 5 minutes, and then cells were collected, and cells concentrations were adjusted to […] by using RPMI 1640 culture solution which were free of phenol red and comprised 10% Fetal Calf Serum. 10 pieces of 6 wells plate was added 1 mL cells suspension per well, and was placed into an incubator of 5% CO2 at 37 °C, and cultured for two hours, then supernatant was discarded, and nonadhesive cells was washed by using PBS. Original culture medium was discarded. Culture was carried out for 48 hours after adding 5 mL culture medium comprising 20 mg/L ox-LDL, and thereby foam cells were formed.
[…] were divided into ox-LDL model group, pyrrolidine dithiocarbamate (PDTC) (drugs source: Sigma), control group and C-K interference group. Each group had 5 pieces of plates. […]
Culture solution was aspirated, and lipid in foam cells was extracted by Folch method (reference: Folch J et al, A simple method for the isolation and purification of total lipides from animal tissues. J Biol Chem, 1957, 226 (1): 497-509), according to direction for use of kit.
Data was expressed as x±s, and variance analysis was carried out between groups by SPSS 13.0 software.

The test system of assay [2] is CD36 mRNA. In words: Real-time quantitative PCR of CD36 mRNA in foam cells. The assay is classed as cell-based. Conditions: 25 μM, rat foam cells. The procedure: FIG. 1 provides effects of a ginsenoside compound K (C-K, 25 μM) and pyrrolidine dithiocarbamate (PDTC, 25 μM) on the foam cell CD36 mRNA expression. a: P<0.05, vs foam cell group; b: P<0.05, vs PDTC. PDTC (25 μM) C-K (25 μM) (n=5).
(1) Material and reagents (the same as Example 2).
(2) real-time quantitative PCR analysis (a reference method: Zhang Yiguan, Li Xiaohui, Fan Jishan, Zhang Haigang, Li Shuhui, Liao Wenqiang, Pang Yan, Jia Yi. Total panax notoginsenosides suppress atherosclerosis formation in rats by means of antiinflammatory and blood fat regulating action. Progress in Modern Biomedicine. 2007, 27(11): 1601-1607).
Data was expressed as x±s, variance analysis were carried out between groups by SPSS 13.0 software.

Experimental findings from patent publication US20110212909A1, “Use of Ginsenoside Compound K in the Preparation of a Medicament for the Prevention and Treatment of Atherosclerosis” (priority 2008, published 2011) are described below.

Marks after values point to notes of the source that are not given here.

For `S=C(S)N1CCCC1` [PDTC, pyrrolidine dithiocarbamate, reference compound], in assay [1] (ox-LDL model group 15.24 ± 2.38), the “CE in foam cells” value was 30.63 ± 3.17^a. In assay [1] (ox-LDL model group 59.56 ± 2.96), the “CE/TC in foam cells” value was 50.29 ± 3.54^a %. Besides, the “TC in foam cells” value in assay [1] (ox-LDL model group 87.20 ± 2.19) is on record as 60.81 ± 2.62^a. Besides, the “change of CD36 mRNA expression in foam cells compared with model group” value in assay [2] was “increased expression”.
